For orientation: melting point means the temperature, or range, at which the solid turns liquid.

Take `CCc1nc2cc(NS(C)(=O)=O)c(Cl)cc2n1-c1ccc(CCNC(=O)NS(=O)(=O)c2ccc(C)cc2)cc1`: the melting point lay in the range of 101 to 123 °C. With `CCc1nc2cc(C(N)=O)c(Cl)cc2n1-c1ccc(CCNC(=O)NS(=O)(=O)c2ccc(C)cc2)cc1` the figure was 152 to 163 °C; with `CCc1nc2cc(NC(C)=O)c(Cl)cc2n1-c1ccc(CCNC(=O)NS(=O)(=O)c2ccc(C)cc2)cc1`, 125 to 133 °C; with `CCc1nc2c(Cl)nc(C)cc2n1-c1ccc(CCNC(=O)NS(=O)(=O)c2ccc(C)cc2)cc1`, 163 °C.

With `CCc1nc2c(C)cc(C)nc2n1-c1ccc(CCNC(=O)NS(=O)(=O)c2cc3ccccc3s2)cc1`, the melting point lay within 128 to 130 °C. The same measure for `CCc1nc2cc(C(F)(F)F)c(Cl)cc2n1-c1ccc(CCOC(=O)NS(=O)(=O)c2ccccn2)cc1`: 127 to 130 °C.

`CCc1nc2cc(C(F)(F)F)c(Cl)cc2n1-c1ccc(CCN(C(=O)O)S(=O)(=O)c2ccc(C)cn2)cc1.Cl.Cl` displayed a melting point of 200.2 °C. As to `CCc1nc2cc(C(F)(F)F)c(Cl)cc2n1-c1ccc(CCOC(=O)NS(=O)(=O)c2cccc3c(N(C)C)cccc23)cc1`, the melting point worked out at 203.4 °C. The molecule `CCc1nc2cc(N(C)C)c(Cl)cc2n1-c1ccc(CCNC(=O)NS(=O)(=O)c2ccc(C)cc2)cc1` returned a melting point of 108 to 114 °C.

As for `CCc1nc2cc(NC)c(Cl)cc2n1-c1ccc(CCNC(=O)NS(=O)(=O)c2ccc(C)cc2)cc1`, the melting point is 95 to 100 °C. The same measure for `CCc1nc2c(C(N)=O)cccc2n1-c1ccc(CCNC(=O)NS(=O)(=O)c2ccc(C)cc2)cc1`: 208 to 214 °C; for `CCc1nc2cc(S(C)(=O)=O)c(Cl)cc2n1-c1ccc(CCNC(=O)NS(=O)(=O)c2ccc(C)cc2)cc1`: 105 to 118 °C; for `CCc1nc2cc(S(N)(=O)=O)c(Cl)cc2n1-c1ccc(CCNC(=O)NS(=O)(=O)c2ccc(C)cc2)cc1`: 163 to 170 °C. The same measure for `CCc1nc2c(C)c(C#N)c(C)cc2n1-c1ccc(CCNC(=O)NS(=O)(=O)c2ccc(C)cc2)cc1`: 140 to 145 °C; for `CCc1nc2cc(Cl)c(Cl)nc2n1-c1ccc(CCNC(=O)NS(=O)(=O)c2ccc(C)cc2)cc1`: 188 to 189 °C; for `CCc1nc2c(C)c(NS(C)(=O)=O)cnc2n1-c1ccc(CCNC(=O)NS(=O)(=O)c2ccc(C)cc2)cc1`: 166 °C. The same measure for `CCc1nc2c(C)cc(C)nc2n1-c1ccc(CC(C)NC(=O)NS(=O)(=O)c2ccc(C)cc2)cc1` (stereo not drawn): 128 °C. In turn, `CCc1nc2cc(C)c(Cl)nc2n1-c1ccc(CCNC(=O)NS(=O)(=O)c2ccc(C)cc2)cc1` [Example 38, 5-CHLORO-2-ETHYL-6-METHYL-3-(4-{2-[({[(4-METHYLPHENYL)SULFONYL]AMINO}CARBONYL)AMINO]ETHYL}PHENYL)-3H-IMIDAZO[4,5-b]PYRIDINE] displayed a melting point of 205 to 206 °C. `CCc1nc2c(C)c(C#N)c(C)nc2n1-c1ccc(CCNC(=O)NS(=O)(=O)c2ccc(C)cc2)cc1` [Example 41, 6-CYANO-2-ETHYL-5,7-DIMETHYL-3-(4-{2-[({[(4-METHYLPHENYL)SULFONYL]AMINO}CARBONYL)AMINO]ETHYL}PHENYL)-3H-IMIDAZO[4,5-b]PYRIDINE] gave a melting point of 133 °C. In turn, `CCc1nc2cc(C(=O)O)c(Cl)cc2n1-c1ccc(CCNC(=O)NS(=O)(=O)c2ccc(C)cc2)cc1` [Example 112, 6-CHLORO-2-ETHYL-1-(4-{2-[({[(4-METHYLPHENYL)SULFONYL]AMINO}CARBONYL)AMINO]ETHYL}PHENYL)-1H-BENZIMIDAZOLE-5-CARBOXYLIC ACID] showed a melting point of 145 to 150 °C. The same measure for `CCc1nc2cc(C(F)(F)F)c(Cl)cc2n1-c1ccc(C[C@H](C)NC(=O)NS(=O)(=O)c2ccc(C)cc2)cc1` [Example 254, N-{[((1S)-2-{4-[6-CHLORO-2-ETHYL-5-(TRIFLUOROMETHYL)-1H-BENZIMIDAZOL-1-YL]PHENYL}-1-METHYLETHYL)AMINO]CARBONYL}-4-METHYLBENZENESULFONAMIDE]: 141 to 143 °C; for `CCc1nc2cc(C(F)(F)F)c(Cl)cc2n1-c1ccc(C[C@@H](C)NC(=O)NS(=O)(=O)c2ccc(C)cc2)cc1` [Example 255, N-{[((1R)-2-{4-[6-CHLORO-2-ETHYL-5-(TRIFLUOROMETHYL)-1H-BENZIMIDAZOL-1-YL]PHENYL}-1-METHYLETHYL)AMINO]CARBONYL}-4-METHYLBENZENESULFONAMIDE]: 138 to 141 °C; for `CCc1nc2c(C)cc(C)nc2n1-c1ccc(CCNC(=O)NS(=O)(=O)c2ccncc2)cc1` [Example 274, 2-ETHYL-3-(4-{2-[({[4-PYRIDINYLSULFONYL]AMINO}CARBONYL)AMINO]ETHYL}PHENYL)-5,7-DIMETHYL-3H-IMIDAZO[4,5-b]PYRIDINE]: 227.9 to 228.7 °C.

Regarding `CCc1nc2cc(C(F)(F)F)c(Cl)cc2n1-c1ccc(CCOC(=O)NS(=O)(=O)c2cn(C)cn2)cc1` [Example 292, 2-{4-[6-CHLORO-2-ETHYL-5-(TRIFLUOROMETHYL)-1H-BENZIMIDAZOL-1-YL]PHENYL}ETHYL-(1-METHYL-1H-IMIDAZOL-4-YL)SULFONYLCARBAMATE], the melting point came out at 204.3 °C. Turning to `CCc1nc2cc(C(F)(F)F)c(Cl)cc2n1-c1ccc(CCOC(=O)NS(=O)(=O)c2cn(C)c(C)n2)cc1` [Example 294, 2-{4-[6-CHLORO-2-ETHYL-5-(TRIFLUOROMETHYL)-1H-BENZIMIDAZOL-1-YL]PHENYL}ETHYL-(1,2-DIMETHYL-1H-IMIDAZOL-4-YL)SULFONYLCARBAMATE], the melting point was 221.2 °C. In the case of `CCc1nc2c(C#N)cccc2n1-c1ccc(CCNC(=O)NS(=O)(=O)c2ccc(C)cc2)cc1` [Example 321, 4-CYANO-2-ETHYL-1-(4-{2-[({[(4-METHYLPHENYL)SULFONYL]AMINO}CARBONYL)AMINO]ETHYL}PHENYL)-1H-BENZIMIDAZOLE], the melting point lay within 95 to 103 °C.

With `CCc1nc2cc(C(=O)NC)c(Cl)cc2n1-c1ccc(CCNC(=O)NS(=O)(=O)c2ccc(C)cc2)cc1` [Example 333, 6-CHLORO-2-ETHYL-N-METHYL-1-(4-{2-[({[(4-METHYLPHENYL)SULFONYL]AMINO}CARBONYL)AMINO]ETHYL}PHENYL)-1H-BENZIMIDAZOLE-5-CARBOXAMIDE], the melting point was 122 to 135 °C. The same measure for `CCc1nc2cc(COC)c(Cl)cc2n1-c1ccc(CCNC(=O)NS(=O)(=O)c2ccc(C)cc2)cc1` [Example 338, N-({[2-(4-{6-CHLORO-2-ETHYL-5-[(METHYLOXY)METHYL]-1H-BENZIMIDAZOL-1-YL}PHENYL)ETHYL]AMINO}CARBONYL)-4-METHYLBENZENSULFONAMIDE]: 134.6 °C; for `CCc1nc2cc(C(C)O)ccc2n1-c1ccc(CCNC(=O)NS(=O)(=O)c2ccc(C)cc2)cc1` (stereo not drawn) [Example 345, N-{[(2-{4-[2-ETHYL-5-(1-HYDROXYETHYL)-1H -BENZIMIDAZOL-1-YL]PHENYL}ETHYL)AMINO]CARBONYL}-4-METHYLBENZENESULFONAMIDE]: 190 °C; for `Cc1ccc(S(=O)(=O)NC(=O)NCCc2ccc(-n3c(C(C)O)nc4cc(C(F)(F)F)c(Cl)cc43)cc2)cc1` (stereo not drawn) [Example 367, N-{[(2-{4-[6-CHLORO-2-(1-HYDROXYETHYL)-5-(TRIFLUOROMETHYL)-1H-BENZIMIDAZOL-1-YL]PHENYL}ETHYL)AMINO]CARBONYL}-4-METHYLBENZENESULFONAMIDE]: 220 °C.

The values above are taken from patent US7928119B2, “Use of EP4 receptor ligands in the treatment of IL-6 involved diseases” (Pfizer Inc., priority 2002, dated 2011).
